PubChem BioAssay (NCI)
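Values below derive from 48-hour exposures of cells grown in 96-well plates, with endpoints linearly interpolated between the two concentrations bracketing the appropriate inhibition level. GI50 marks 50% less growth. Definition used: TGI = concentration required for complete inhibition of growth.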

Assays:
Assay in all cases: growth of human tumour cells (NCI), 48 h
EKVX NSCLC = system: EKVX NSCLC
HOP-92 NSCLC = system: HOP-92 NSCLC
MDA-MB-435 = system: MDA-MB-435
MOLT-4 leukemia = system: MOLT-4 leukemia
NCI-H226 lung = system: NCI-H226 lung
RXF 393 renal = system: RXF 393 renal
SK-MEL-5 melanoma = system: SK-MEL-5 melanoma
SR leukemia = system: SR leukemia
TK-10 renal = system: TK-10 renal
UO-31 renal = system: UO-31 renal

| SMILES | TGI (EKVX NSCLC) | TGI (HOP-92 NSCLC) | TGI (MDA-MB-435) | TGI (MOLT-4 leukemia) | TGI (NCI-H226 lung) | TGI (RXF 393 renal) | TGI (SK-MEL-5 melanoma) | TGI (SR leukemia) | TGI (TK-10 renal) | TGI (UO-31 renal) | GI50 (EKVX NSCLC) | GI50 (HOP-92 NSCLC) | GI50 (MDA-MB-435) | GI50 (MOLT-4 leukemia) | GI50 (NCI-H226 lung) | GI50 (RXF 393 renal) | GI50 (SK-MEL-5 melanoma) | GI50 (SR leukemia) | GI50 (TK-10 renal) | GI50 (UO-31 renal) |
| --- | --- | --- | --- | --- | --- | --- | --- | --- | --- | --- | --- | --- | --- | --- | --- | --- | --- | --- | --- | --- |
| O=C(CC(=O)c1ccccc1NC1=Cc2ccccc2C(=O)C1=O)C(=O)NC1=C(Cl)C(=O)c2ccccc2C1=O | 22.4 µM | 17.9 µM | 3.36 µM | 18 µM | 20.1 µM | 7.5 µM | 2.05 µM | 14.1 µM | 43.6 µM | 20.4 µM | – | – | – | – | – | – | – | – | – | – |
| CC(C)[C@@H](CS(=O)(=O)C(C)C)N1C(=O)[C@@](C)(CC(=O)O)C[C@H](c2cccc(Cl)c2)[C@H]1c1ccc(Cl)cc1 | > 100 µM | 36.3 µM | 45.5 µM | 11.1 µM | 0.422 µM | 67 µM | 17.2 µM | > 40.7 µM | 97 µM | 7.14 µM | 11.9 µM | 12.9 µM | 15.3 µM | 0.338 µM | 0.193 µM | 19.5 µM | 1.96 µM | 0.249 µM | 28.2 µM | 0.303 µM |
| C=C1CO[C@@H]2C[C@@H]1CCC1(C)OC1CC/C(C)=C/CC[C@@]2(C)O (some centres undefined) | 43.9 µM | > 100 µM | 42.2 µM | 39.1 µM | > 100 µM | 64.1 µM | 29.4 µM | 2.72 µM | > 100 µM | 29.5 µM | 18.7 µM | 36.4 µM | 18.5 µM | 17.1 µM | > 100 µM | 23.6 µM | 15.4 µM | 1.29 µM | > 100 µM | 15.1 µM |
| C=C1C(=O)O[C@H]2[C@H]1CC(=O)/C(C)=C\CC[C@@]1(C)O[C@@H]21 | 8.03 µg/mL | 4.32 µg/mL | 7.14 µg/mL | 4.7 µg/mL | 9.45 µg/mL | 9.41 µg/mL | 8.73 µg/mL | 9.5 µg/mL | 5.38 µg/mL | 5.85 µg/mL | 4 µg/mL | 1.94 µg/mL | 2.98 µg/mL | 1.12 µg/mL | 4.71 µg/mL | 2.95 µg/mL | 2.99 µg/mL | 0.759 µg/mL | 1.93 µg/mL | 2.61 µg/mL |
| CCOC(=O)c1cnc2c(cnn2CC)c1NN=C(C)C | > 100 µM | > 100 µM | > 100 µM | > 100 µM | > 100 µM | 70 µM | > 100 µM | > 100 µM | > 100 µM | > 100 µM | 20.6 µM | 25.3 µM | 78.2 µM | 64.7 µM | 57.4 µM | 11.4 µM | 33.1 µM | 33.6 µM | 27.1 µM | 23.2 µM |
| C=C1C(=O)O[C@H]2[C@H]1CC/C(COC(=O)C(=O)c1cn(C)c3ccc(OC)cc13)=C\CC[C@@]1(C)O[C@@H]21 | 16.3 µM | 3.17 µM | 9.49 µM | 16 µM | 10.1 µM | 3.95 µM | 7.56 µM | 42.5 µM | 13.2 µM | 6.02 µM | 8.19 µM | 1.27 µM | 3.83 µM | 3.65 µM | 5.45 µM | 2.02 µM | 4.03 µM | 2.34 µM | 4.79 µM | 2.42 µM |
| O=C1C=C(Nc2nc(C(=O)O)cc(=O)[nH]2)c2ccccc2C1=O | > 100 µM | > 100 µM | > 100 µM | > 100 µM | > 100 µM | > 100 µM | > 100 µM | > 100 µM | > 100 µM | > 100 µM | – | – | – | – | – | – | – | – | – | – |
| Cc1ccc(-n2c(-c3ccc(Cl)cc3)cs/c2=N\NC(=O)COc2n[nH]c(=O)c3ccccc23)cc1 | > 100 µM | > 100 µM | > 100 µM | > 100 µM | > 100 µM | > 100 µM | > 100 µM | > 100 µM | > 100 µM | > 100 µM | 59.6 µM | 34.6 µM | > 100 µM | > 100 µM | 39.6 µM | 30.8 µM | > 100 µM | > 100 µM | 52.7 µM | > 100 µM |
| COC(=O)[C@]12CC[C@@H](C)[C@H](C)[C@@H]1C1=CC[C@@H]3[C@@]4(C)C=C(O)C(=O)C(C)=C4CC[C@@]3(C)[C@]1(C)CC2 | 19.5 µM | 26.2 µM | 28.2 µM | 20.7 µM | 41 µM | 27.9 µM | 28.8 µM | 28.2 µM | 35.8 µM | 26.3 µM | 4.96 µM | 11.6 µM | 13.8 µM | 4.71 µM | 12.3 µM | 12.1 µM | 15.4 µM | 5.29 µM | 18.2 µM | 11.6 µM |
| COc1ccc2c(c1)C(=O)c1c-2n(CCCCl)c(=O)c2cc(N(C)C)ccc12 | > 100 µM | 23.4 µM | > 100 µM | > 100 µM | > 100 µM | 90.7 µM | 34.6 µM | > 100 µM | > 100 µM | > 100 µM | > 100 µM | 3.42 µM | 81.8 µM | > 100 µM | 54.7 µM | 25.5 µM | 11.2 µM | 19.9 µM | 30.9 µM | > 100 µM |
| NCC(=O)CCC(=O)O | > 100 µM | > 100 µM | > 100 µM | > 100 µM | > 100 µM | > 100 µM | > 100 µM | > 100 µM | > 100 µM | > 100 µM | > 100 µM | > 100 µM | > 100 µM | > 100 µM | > 100 µM | > 100 µM | > 100 µM | > 100 µM | > 100 µM | > 100 µM |
| CCc1nc(N)nc(N)c1-c1ccc(Cl)c(N=NN(C)C)c1 | > 95.2 µM | > 100 µM | > 92.1 µM | 73.5 µM | > 100 µM | > 100 µM | 50.2 µM | 44.8 µM | > 100 µM | > 70.4 µM | – | – | – | – | – | – | – | – | – | – |
| O=C1C(=O)c2c(nc3ncccn23)-c2ccccc21 | 0.954 µM | 1 µM | 0.254 µM | 0.711 µM | 1.25 µM | 0.967 µM | 0.304 µM | – | 3.35 µM | 0.405 µM | 0.396 µM | 0.271 µM | 0.114 µM | 0.257 µM | 0.493 µM | 0.497 µM | 0.167 µM | 0.315 µM | 1.85 µM | 0.187 µM |
